In ChEMBL document CHEMBL5465560, “Selectivity Literature for EUbOPEN Chemogenomic Library” (2024):
Values belong to the molecule of their own block, whether it stands above or below them.

Legend:
[1] = target: Wee1-like protein kinase (Homo sapiens) (UniProt P30291); assay: Selectivity interaction (KinomeScan (DiscoverX)) EUB0000655a WEE1; conditions: at 10 µM
[2] = target: Casein kinase II subunit alpha' (Homo sapiens) (UniProt P19784); assay: Selectivity interaction (KinomeScan (DiscoverX)) EUB0001079a CSNK2A2; conditions: at 1 µM
[3] = target: T1, Serine/threonine-protein kinase TAO2 (Homo sapiens) (UniProt Q9UL54); assay: Selectivity interaction (KinomeScan (DiscoverX)) EUB0000607a TAOK2; conditions: at 10 µM
T1 sequence (whole entry): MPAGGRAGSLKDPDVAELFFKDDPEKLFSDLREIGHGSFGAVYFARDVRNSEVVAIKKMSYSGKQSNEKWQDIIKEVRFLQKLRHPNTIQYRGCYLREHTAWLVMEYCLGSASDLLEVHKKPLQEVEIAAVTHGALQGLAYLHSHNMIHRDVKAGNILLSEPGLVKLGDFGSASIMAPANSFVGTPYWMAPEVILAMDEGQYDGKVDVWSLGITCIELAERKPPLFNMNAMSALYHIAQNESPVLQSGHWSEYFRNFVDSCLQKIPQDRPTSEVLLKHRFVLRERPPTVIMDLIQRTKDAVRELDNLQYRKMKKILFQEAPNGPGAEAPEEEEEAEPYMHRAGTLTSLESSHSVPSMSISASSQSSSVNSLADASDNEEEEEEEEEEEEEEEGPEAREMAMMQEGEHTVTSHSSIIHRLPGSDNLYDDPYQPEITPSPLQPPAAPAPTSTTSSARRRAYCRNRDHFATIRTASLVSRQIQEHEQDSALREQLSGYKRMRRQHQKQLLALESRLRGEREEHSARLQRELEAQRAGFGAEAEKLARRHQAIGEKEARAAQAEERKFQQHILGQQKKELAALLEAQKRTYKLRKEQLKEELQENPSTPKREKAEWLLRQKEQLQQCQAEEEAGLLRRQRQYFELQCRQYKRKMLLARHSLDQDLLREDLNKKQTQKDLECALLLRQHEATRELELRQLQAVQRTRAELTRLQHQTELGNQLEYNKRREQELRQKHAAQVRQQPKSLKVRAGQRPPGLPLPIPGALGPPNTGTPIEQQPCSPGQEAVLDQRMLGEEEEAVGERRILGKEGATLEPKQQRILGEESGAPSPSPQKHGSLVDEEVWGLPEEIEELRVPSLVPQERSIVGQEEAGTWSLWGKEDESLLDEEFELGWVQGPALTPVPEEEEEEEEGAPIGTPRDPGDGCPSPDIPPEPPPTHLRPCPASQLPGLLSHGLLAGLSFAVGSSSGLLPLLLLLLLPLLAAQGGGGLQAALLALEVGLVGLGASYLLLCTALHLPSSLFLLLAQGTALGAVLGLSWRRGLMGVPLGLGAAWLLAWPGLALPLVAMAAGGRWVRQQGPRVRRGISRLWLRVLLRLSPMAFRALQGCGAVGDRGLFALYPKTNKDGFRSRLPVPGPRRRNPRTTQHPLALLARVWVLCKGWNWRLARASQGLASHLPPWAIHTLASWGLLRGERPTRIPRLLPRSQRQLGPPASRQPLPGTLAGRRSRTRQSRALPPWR

[4] = target: Death-associated protein kinase 3 (Homo sapiens) (UniProt O43293); conditions: at 10 µM
[5] = system: Hepatocyte growth factor receptor (Homo sapiens), P08581 [Y1235D]; conditions: at 10 µM
[6] = target: T2, Mitogen-activated protein kinase kinase kinase 7 (Homo sapiens) (UniProt O43318); assay: Selectivity interaction (Upstate Kinase Profiler service (Millipore)) EUB0000056c MAP3K7; conditions: at 1 µM
T2 sequence (whole entry): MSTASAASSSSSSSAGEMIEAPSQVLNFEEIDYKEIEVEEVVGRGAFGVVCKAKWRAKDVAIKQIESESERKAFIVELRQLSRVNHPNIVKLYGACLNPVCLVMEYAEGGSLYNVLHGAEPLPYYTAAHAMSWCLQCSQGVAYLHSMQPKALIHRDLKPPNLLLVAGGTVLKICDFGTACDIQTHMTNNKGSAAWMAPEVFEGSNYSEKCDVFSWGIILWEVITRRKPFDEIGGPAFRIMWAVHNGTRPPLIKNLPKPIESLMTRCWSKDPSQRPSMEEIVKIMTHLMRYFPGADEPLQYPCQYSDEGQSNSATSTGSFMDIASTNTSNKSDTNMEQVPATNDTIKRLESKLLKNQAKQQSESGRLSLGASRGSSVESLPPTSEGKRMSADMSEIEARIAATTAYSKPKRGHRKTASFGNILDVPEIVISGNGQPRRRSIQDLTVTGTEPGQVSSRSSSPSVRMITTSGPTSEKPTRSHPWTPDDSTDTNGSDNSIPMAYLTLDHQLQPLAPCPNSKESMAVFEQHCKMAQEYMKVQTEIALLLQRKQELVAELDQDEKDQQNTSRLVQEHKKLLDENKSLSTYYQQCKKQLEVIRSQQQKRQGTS

[7] = target: T3, Serine/threonine-protein kinase Chk1 (Homo sapiens) (UniProt O14757); assay: Selectivity interaction (KinomeScan (DiscoverX)) EUB0000229b CHEK1; conditions: at 10 µM
T3 sequence (whole entry): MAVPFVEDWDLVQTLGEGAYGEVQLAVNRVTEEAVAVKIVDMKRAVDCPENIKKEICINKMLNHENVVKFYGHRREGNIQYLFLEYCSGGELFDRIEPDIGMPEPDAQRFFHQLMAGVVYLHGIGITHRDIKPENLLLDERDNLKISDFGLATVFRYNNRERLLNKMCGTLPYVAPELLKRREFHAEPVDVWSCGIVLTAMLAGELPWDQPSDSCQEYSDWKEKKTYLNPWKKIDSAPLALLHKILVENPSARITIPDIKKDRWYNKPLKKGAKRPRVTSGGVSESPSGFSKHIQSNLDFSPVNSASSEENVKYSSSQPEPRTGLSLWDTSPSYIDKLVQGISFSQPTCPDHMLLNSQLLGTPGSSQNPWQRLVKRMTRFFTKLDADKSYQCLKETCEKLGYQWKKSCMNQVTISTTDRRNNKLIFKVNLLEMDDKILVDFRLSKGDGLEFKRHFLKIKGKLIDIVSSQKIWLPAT

[8] = target: Fibroblast growth factor receptor 4 (Homo sapiens, UniProt P22455); assay: Selectivity interaction (KinomeScan (DiscoverX)) EUB0000092b FGFR4; conditions: at 10 µM
[9] = system: Dual specificity mitogen-activated protein kinase kinase 1 (Homo sapiens), Q02750 [S218D,S222D]; assay: (§1) Selectivity interaction (LanthaScreen Eu Kinase Binding Assay) EUB0001632a MAP2K1; conditions: at 10 µM
[10] = target: Dual specificity mitogen-activated protein kinase kinase 1 (Homo sapiens, UniProt Q02750); assay: as §1; conditions: at 10 µM
Dual specificity mitogen-activated protein kinase kinase 1, sequence (Q02750 whole entry): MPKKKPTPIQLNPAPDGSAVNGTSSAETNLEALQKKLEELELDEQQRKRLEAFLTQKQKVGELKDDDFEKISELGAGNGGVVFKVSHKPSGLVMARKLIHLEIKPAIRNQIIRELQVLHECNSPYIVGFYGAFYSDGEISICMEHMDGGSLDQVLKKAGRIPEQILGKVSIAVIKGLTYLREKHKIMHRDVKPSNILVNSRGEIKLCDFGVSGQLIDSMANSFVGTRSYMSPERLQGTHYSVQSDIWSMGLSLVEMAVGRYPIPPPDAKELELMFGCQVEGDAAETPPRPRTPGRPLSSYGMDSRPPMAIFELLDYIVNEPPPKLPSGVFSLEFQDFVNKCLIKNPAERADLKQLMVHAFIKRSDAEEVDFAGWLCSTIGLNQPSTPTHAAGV

Fibroblast growth factor receptor 4, sequence (P22455 22-802 limits assumed): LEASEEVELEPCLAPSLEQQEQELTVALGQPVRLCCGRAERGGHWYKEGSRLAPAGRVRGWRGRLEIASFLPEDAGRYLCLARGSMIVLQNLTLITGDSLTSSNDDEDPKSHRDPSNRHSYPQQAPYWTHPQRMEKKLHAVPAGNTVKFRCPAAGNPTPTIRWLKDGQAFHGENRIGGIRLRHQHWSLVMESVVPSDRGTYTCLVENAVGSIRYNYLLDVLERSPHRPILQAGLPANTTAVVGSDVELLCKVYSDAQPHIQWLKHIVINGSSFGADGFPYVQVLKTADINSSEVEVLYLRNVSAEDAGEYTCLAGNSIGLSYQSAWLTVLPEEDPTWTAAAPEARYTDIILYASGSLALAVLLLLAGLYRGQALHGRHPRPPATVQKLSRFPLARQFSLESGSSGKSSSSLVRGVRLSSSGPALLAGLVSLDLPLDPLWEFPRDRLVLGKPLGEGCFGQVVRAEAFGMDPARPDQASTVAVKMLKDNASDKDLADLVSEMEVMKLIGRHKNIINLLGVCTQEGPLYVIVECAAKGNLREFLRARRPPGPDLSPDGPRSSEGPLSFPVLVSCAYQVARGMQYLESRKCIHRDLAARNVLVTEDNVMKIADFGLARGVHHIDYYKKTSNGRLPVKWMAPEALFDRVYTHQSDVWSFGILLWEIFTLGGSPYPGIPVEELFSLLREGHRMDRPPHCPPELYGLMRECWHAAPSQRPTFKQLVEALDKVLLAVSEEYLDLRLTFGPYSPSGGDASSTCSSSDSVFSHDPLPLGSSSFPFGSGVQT
Hepatocyte growth factor receptor (Homo sapiens), P08581 [Y1235D], sequence (P08581 whole entry Y1235D): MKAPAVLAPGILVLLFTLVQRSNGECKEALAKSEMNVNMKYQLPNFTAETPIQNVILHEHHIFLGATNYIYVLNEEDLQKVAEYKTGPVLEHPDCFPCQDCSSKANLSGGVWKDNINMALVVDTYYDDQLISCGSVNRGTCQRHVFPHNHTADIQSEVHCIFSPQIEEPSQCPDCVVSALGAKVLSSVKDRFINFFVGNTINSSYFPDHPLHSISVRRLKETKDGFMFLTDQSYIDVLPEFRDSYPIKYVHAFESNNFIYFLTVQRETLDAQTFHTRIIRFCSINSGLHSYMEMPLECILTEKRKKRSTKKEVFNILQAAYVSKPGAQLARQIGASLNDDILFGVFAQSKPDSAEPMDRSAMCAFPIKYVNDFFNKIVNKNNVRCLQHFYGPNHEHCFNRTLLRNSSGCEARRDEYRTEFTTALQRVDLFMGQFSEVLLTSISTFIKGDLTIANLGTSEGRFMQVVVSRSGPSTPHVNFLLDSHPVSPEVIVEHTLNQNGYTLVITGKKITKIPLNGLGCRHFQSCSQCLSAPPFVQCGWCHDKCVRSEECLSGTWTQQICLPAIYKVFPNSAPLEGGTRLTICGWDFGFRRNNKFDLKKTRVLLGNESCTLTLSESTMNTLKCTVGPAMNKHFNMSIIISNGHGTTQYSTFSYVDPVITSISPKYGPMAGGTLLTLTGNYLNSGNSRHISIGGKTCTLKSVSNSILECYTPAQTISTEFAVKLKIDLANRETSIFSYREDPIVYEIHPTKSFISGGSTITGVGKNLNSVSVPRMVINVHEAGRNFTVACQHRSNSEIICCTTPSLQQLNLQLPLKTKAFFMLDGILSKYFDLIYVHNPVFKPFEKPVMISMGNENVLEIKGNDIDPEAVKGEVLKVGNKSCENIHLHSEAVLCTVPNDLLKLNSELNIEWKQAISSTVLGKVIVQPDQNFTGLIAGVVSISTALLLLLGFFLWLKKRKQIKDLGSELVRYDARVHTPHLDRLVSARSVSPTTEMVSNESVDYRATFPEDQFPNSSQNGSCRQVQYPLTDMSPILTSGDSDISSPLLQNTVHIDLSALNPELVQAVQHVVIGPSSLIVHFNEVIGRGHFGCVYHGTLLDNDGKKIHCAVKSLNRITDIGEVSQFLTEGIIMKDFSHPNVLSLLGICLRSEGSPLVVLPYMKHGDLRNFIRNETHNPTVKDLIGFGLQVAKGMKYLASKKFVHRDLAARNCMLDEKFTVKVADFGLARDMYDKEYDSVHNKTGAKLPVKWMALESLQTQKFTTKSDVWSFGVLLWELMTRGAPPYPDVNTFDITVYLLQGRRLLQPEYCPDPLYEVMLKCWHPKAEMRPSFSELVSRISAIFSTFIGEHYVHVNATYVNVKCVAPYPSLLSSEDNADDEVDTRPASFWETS
Death-associated protein kinase 3 (Homo sapiens), sequence (O43293 whole entry, looked up): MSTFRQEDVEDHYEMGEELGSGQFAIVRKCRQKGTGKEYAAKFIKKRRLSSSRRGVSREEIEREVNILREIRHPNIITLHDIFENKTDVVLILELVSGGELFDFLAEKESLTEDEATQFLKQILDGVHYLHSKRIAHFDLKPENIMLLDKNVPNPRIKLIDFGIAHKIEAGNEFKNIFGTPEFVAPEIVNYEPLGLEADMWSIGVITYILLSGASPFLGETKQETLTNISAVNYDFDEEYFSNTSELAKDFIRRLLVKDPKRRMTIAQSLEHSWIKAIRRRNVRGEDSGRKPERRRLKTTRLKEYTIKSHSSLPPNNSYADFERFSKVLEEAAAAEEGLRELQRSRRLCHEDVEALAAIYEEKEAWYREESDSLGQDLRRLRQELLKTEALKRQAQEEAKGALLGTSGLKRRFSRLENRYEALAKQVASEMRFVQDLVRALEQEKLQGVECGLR
Casein kinase II subunit alpha' (Homo sapiens), sequence (P19784 whole entry, looked up): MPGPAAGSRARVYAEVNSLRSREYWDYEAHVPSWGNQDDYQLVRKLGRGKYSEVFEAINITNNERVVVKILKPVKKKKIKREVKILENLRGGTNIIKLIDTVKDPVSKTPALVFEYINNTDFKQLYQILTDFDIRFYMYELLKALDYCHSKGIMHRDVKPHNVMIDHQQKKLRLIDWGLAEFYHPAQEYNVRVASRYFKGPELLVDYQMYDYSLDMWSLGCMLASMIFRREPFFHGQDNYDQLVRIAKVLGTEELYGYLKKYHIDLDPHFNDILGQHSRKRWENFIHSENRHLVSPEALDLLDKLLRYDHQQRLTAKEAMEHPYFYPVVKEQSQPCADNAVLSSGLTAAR
Wee1-like protein kinase (Homo sapiens), sequence (P30291 whole entry, looked up): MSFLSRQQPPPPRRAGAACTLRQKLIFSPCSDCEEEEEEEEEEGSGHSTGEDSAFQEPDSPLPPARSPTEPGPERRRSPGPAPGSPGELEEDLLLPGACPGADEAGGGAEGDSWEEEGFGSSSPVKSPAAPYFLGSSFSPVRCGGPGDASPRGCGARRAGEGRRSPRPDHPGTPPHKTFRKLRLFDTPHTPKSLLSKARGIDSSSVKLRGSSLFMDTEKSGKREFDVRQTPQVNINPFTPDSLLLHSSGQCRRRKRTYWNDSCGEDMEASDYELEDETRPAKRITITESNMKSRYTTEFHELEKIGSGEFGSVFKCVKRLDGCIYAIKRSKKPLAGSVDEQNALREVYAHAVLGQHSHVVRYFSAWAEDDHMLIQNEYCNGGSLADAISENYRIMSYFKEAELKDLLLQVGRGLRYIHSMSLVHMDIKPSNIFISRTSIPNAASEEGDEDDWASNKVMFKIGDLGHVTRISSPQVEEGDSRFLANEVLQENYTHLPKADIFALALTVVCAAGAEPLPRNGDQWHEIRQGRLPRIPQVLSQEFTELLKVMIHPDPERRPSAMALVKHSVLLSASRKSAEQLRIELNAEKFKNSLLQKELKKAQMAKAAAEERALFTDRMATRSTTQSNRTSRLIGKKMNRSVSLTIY
Dual specificity mitogen-activated protein kinase kinase 1 (Homo sapiens), Q02750 [S218D,S222D], sequence (Q02750 whole entry S218D/S222D): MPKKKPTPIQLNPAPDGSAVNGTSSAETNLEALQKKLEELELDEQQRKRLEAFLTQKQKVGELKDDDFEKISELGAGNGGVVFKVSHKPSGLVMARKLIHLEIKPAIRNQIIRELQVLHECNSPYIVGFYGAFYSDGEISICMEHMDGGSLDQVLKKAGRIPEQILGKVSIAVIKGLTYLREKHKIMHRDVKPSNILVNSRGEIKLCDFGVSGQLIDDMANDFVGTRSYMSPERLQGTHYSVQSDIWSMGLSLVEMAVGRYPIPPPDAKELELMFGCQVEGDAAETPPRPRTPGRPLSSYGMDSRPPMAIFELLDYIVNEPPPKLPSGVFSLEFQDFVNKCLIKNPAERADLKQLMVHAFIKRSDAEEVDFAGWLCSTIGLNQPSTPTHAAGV

SMILES: CN(C)CCOc1ccc(-c2nc(-c3ccncc3)c(-c3ccc4c(c3)CC/C4=N\O)[nH]2)cc1
% of control [1]: 100%

SMILES: Nc1cnc(N2CCc3cc(S(=O)(=O)Nc4c(F)cc(Cl)cc4F)cc(N4CCCC4=O)c32)nc1 [TP-020n]
% of control [2]: 98%

SMILES: CNC(=O)Nc1ccc(-c2nc(N3CC4CCC(C3)O4)c3cnn(C4CCC5(CC4)OCCO5)c3n2)cc1
% of control [3]: 100%

SMILES: COCC(=O)NC/C=C/c1ccc2ncnc(Nc3ccc(Oc4ccc(C)nc4)c(C)c3)c2c1 [CP-724714]
% of control [4]: 96%
% of control [5]: 81%

% of inhibition [6]: 6%
SMILES: Cc1ccc(-c2ccc3c(ccc4sc5c(c43)NC[C@@H](C)NC5=O)n2)cn1

SMILES: COc1cc(N(C)c2ccnc3ccc(C(F)(F)F)cc23)cc(OC)c1OC
% binding [7]: 92%

SMILES: CCC(=O)N1CCN(c2ccc(-n3c(=O)ccc4cnc5ccc(-c6cnc7ccccc7c6)cc5c43)cc2C(F)(F)F)CC1
% of control [8]: 21%

% of inhibition [9]: -20.2%
% of inhibition [10]: -15.4%
SMILES: Cn1cc(-n2cnc3c(NCc4nc5cc(Cl)c(Cl)cc5[nH]4)nc(N4CCOCC4)nc32)cn1
